Columns and labels:
Format in all cases: cell-based
Conditions in all cases: SU-DHL-4 cells, test compound 100 nmol/L, 24 hours
BRD2 = biological target: T1, BRD2 (Homo sapiens, UniProt P25440); assay: Evaluation of BET proteolysis in SU-DHL-4 cell line by Western blotting: BRD2 (Test Example 4)
T1 construct: Changes in the amount of BRD4, BRD2 and BRD3 proteins in the SU-DHL-4 cell line; endogenous in cells; host or cells: SU-DHL-4
Description: (§1) The human DLBCL cell line SU-DHL-4 was purchased from DSMZ. SU-DHL-4 was passaged using RPMI1640 medium containing 10 vol % FBS. The culture conditions were 37° C. and 5% CO2.
Anti-BRD2 antibody: Brd2 (D8964) Rabbit mAb (Cell Signaling Technology, Cat No. #5848S)
(§2) Changes in the amount of BRD4, BRD2 and BRD3 proteins in the SU-DHL-4 cell line by the test compound (compound 1b, compound 1l or compound P3) were detected by WB. The compound P3 is a compound described as example 14 in the known Patent Document 2 (WO 2015/081284), which was synthesized according to the method described in Patent Document 2 and used in this test.
(§3) The cultured SU-DHL-4 cells were seeded at 6×10^5 cells/well in a transparent 6-well plate (Code No. 140675, Thermo Fisher Scientific). After seeding, the cells were pre-cultured at 37° C. in a carbon dioxide gas incubator for 18 to 25 hours. Next, a 0.1 mmol/L DMSO solution of the test compound was prepared, diluted so that the concentration was 200-fold of the final concentration in RPMI1640 medium containing the above FBS and PS, and 1/200 volume of the diluted solution was added to each well. At this time, the final concentration of DMSO was adjusted to be 0.1 vol %. After adding the test compound, the cells were cultured at 37° C. in a carbon dioxide gas incubator for 24 hours.
(§4) After collecting the cells, the supernatant was aspirated, and Lysis buffer 6 (R&D systems, Cat No. 895561) was added to the pellet at 0.1 mL/sample. After incubating on ice for 60 minutes, the supernatant was collected by centrifugation at 15000 rpm for 10 minutes at 4° C.
(§5) Using Pierce BCA Protein Assay Kit (Thermo Fisher, Cat No. 23225), the protein concentration of each sample was quantified according to the manual attached to the kit, and then was diluted and prepared with Lane Marker Reducing Sample Buffer (5×) (Thermo Fisher, Cat No. 39000) and Lysis buffer 6 to 1 mg/mL. The cells were incubated at 95° C. for 5 minutes to prepare WB samples. WB samples were stored at −30° C. until electrophoresis.
(§6) The WB sample was thawed and used after vortex mixing and spin down. […]

BRD3 = biological target: T2, BRD3 (Homo sapiens, UniProt Q15059); assay: Evaluation of BET proteolysis in SU-DHL-4 cell line by Western blotting: BRD3 (Test Example 4)
T2 construct: Changes in the amount of BRD4, BRD2 and BRD3 proteins in the SU-DHL-4 cell line; endogenous in cells; host or cells: SU-DHL-4
Description: as §1
Anti-BRD3 antibody: Anti-BRD3 antibody (2088C3a) (Santa Cruz Biotechnology, Cat No. sc-81202)
as §2, §3, §4, §5, §6

BRD4 = biological target: T3, BRD4 (Homo sapiens, UniProt O60885); assay: Evaluation of BET proteolysis in SU-DHL-4 cell line by Western blotting: BRD4 (Test Example 4)
T3 construct: Changes in the amount of BRD4, BRD2 and BRD3 proteins in the SU-DHL-4 cell line; endogenous in cells; host or cells: SU-DHL-4
Description: as §1
Anti-BRD4 antibody: BRD4 (E2A7X) Rabbit mAb (Cell Signaling Technology, Cat No. #13440S)
as §2, §3, §4, §5, §6

T1 sequence (P25440 whole entry): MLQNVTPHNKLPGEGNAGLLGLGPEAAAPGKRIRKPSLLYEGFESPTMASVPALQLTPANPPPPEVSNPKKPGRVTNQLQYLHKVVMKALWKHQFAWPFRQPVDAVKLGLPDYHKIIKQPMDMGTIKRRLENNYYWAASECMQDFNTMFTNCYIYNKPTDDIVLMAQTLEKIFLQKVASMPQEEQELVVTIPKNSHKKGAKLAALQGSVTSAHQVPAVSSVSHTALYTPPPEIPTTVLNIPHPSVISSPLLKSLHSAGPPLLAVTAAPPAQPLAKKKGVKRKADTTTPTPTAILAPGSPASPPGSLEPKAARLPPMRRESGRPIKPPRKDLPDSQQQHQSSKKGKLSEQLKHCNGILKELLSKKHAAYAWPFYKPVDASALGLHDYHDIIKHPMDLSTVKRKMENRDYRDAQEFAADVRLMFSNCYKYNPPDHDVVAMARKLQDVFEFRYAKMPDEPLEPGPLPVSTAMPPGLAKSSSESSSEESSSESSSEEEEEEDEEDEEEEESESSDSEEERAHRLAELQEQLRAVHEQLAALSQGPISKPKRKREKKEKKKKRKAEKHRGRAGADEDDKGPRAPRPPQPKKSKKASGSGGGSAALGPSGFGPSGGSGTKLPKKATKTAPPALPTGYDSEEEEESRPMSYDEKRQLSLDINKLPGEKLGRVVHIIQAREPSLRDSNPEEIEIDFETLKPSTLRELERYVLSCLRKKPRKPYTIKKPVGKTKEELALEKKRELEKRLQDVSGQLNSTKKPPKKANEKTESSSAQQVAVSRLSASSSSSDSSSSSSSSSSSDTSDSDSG
T2 sequence (Q15059 whole entry): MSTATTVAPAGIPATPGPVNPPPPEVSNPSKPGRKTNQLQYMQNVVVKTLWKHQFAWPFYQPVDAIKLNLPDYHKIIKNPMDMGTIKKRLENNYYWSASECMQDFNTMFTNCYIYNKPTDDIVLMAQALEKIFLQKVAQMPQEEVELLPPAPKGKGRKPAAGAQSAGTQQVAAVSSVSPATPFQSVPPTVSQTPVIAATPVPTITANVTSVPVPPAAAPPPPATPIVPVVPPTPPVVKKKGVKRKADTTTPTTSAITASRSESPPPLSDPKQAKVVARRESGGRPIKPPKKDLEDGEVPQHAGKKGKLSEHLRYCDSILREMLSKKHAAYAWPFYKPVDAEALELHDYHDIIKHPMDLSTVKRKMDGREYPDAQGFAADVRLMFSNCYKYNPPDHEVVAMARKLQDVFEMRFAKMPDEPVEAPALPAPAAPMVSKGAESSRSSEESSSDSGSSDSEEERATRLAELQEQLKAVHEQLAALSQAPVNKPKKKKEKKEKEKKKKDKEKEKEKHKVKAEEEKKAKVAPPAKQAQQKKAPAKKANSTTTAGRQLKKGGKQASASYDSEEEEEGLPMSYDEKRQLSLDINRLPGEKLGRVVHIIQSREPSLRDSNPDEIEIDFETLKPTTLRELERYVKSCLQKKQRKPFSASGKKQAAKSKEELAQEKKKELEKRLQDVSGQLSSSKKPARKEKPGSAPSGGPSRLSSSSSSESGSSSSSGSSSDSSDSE

SMILES: CCNC(=O)C[C@@H]1N=C(c2ccc(SCCCCSc3ccc(C4=N[C@@H](CC(=O)NCC)c5nnc(C)n5-c5ccc(OC)cc54)cc3)cc2)c2cc(OC)ccc2-n2c(C)nnc21 [Compound P3, 2,2′-((4S,4'S)-6,6′-((butane-1,4-diylbis(sulfanediyl))bis(4,1-phenylene))bis(8-methoxy-1-methyl-4H-benzo[f][1,2,4]triazolo[4,3-a][1,4]diazepine-6,4-diyl))bis(N-ethylacetamide), reference compound]
- change in amount of BRD2 protein (band in Western blotting, FIG. 1) (BRD2): the band was not faint compared with that of control
- change in amount of BRD3 protein (band in Western blotting, FIG. 1) (BRD3): the band was not faint compared with that of control
- change in amount of BRD4 protein (band in Western blotting, FIG. 1) (BRD4): the band was not faint compared with that of control

Source: patent US20220378923A1, “BET DEGRADER” (KYOWA KIRIN CO., LTD., priority 2019, published 2022)
